In patent publication US20250108038A1 (priority 2023, published 2025):
Entries after “also recorded” stand apart in the source; their conditions may differ.

Legend:
MDR1 = MDR1 (Homo sapiens, UniProt P08183); test: Vesicular transport inhibition assay, MDR1 (N-methyl quinidine)
Description: (§1) Vesicular transport assays were performed with inside-out membrane vesicles prepared from cells overexpressing human ABC (efflux) transporters. The transporters were expressed by SOLVO Biotechnology in mammalian (HEK293) cells. The mammalian cells were stably transfected with the ABC transporter of interest. The assays were conducted according to the actual SOLVO VT assay protocols (PR-ASY-VT-General Protocol for Vesicular Transport Inhibition Assays).
(§2) The membrane vesicle suspension was mixed with the ice-cold transport buffer, then the probe substrate solution was added. […] (for BCRP and MDR1). […] Reactions were quenched by the addition of 200 μL of ice-cold washing buffer and immediate filtration via glass fiber filters mounted to a 96-well plate (filter plate). The filters were washed (5×200 μL of ice-cold washing buffer), dried and the amount of substrate inside the filtered vesicles was determined by liquid scintillation counting.
(§3) Incubation with AMP provided background activity values for all data points.

BSEP = BSEP (Homo sapiens, UniProt O95342); test: Vesicular transport inhibition assay, BSEP (taurocholate)
BSEP, sequence (O95342 whole entry): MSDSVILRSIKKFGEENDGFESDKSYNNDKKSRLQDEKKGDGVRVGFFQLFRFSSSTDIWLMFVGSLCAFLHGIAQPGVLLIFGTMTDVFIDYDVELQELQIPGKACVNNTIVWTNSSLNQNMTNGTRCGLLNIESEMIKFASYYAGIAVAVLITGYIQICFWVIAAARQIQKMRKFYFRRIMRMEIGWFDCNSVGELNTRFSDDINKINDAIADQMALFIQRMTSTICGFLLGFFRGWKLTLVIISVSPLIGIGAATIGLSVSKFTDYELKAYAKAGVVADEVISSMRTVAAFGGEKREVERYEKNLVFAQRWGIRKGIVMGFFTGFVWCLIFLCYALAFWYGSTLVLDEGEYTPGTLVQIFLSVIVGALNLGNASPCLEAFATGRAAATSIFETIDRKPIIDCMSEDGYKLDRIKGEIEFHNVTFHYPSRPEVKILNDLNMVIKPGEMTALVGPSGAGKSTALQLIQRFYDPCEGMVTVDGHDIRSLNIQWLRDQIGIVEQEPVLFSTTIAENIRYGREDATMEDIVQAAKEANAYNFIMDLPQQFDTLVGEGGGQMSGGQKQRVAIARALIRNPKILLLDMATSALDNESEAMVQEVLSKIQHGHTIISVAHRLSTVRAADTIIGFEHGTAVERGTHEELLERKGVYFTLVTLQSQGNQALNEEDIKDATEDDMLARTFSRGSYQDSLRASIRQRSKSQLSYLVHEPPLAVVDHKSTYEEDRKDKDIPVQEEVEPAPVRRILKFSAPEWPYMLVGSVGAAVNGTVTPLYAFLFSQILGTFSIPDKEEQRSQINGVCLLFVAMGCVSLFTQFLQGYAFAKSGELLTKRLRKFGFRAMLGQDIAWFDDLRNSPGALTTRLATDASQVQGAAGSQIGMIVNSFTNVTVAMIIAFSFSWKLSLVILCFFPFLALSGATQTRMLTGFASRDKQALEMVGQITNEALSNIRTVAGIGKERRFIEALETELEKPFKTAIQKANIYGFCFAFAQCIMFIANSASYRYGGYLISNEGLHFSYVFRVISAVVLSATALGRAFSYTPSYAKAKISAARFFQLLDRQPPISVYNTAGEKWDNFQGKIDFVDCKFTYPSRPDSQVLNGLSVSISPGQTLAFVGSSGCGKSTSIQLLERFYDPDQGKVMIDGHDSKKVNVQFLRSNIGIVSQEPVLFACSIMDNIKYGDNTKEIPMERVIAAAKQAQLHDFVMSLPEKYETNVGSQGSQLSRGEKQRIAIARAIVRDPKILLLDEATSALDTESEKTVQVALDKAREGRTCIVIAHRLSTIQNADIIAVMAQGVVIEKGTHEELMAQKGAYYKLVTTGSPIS
Description: as §1, §2, §3

OCT1 = molecular target: T1, OCT1 (Homo sapiens, UniProt O15245); test: Uptake transporter inhibition assay, OCT1 (sumatriptan)
T1 sequence (O15245 1-554): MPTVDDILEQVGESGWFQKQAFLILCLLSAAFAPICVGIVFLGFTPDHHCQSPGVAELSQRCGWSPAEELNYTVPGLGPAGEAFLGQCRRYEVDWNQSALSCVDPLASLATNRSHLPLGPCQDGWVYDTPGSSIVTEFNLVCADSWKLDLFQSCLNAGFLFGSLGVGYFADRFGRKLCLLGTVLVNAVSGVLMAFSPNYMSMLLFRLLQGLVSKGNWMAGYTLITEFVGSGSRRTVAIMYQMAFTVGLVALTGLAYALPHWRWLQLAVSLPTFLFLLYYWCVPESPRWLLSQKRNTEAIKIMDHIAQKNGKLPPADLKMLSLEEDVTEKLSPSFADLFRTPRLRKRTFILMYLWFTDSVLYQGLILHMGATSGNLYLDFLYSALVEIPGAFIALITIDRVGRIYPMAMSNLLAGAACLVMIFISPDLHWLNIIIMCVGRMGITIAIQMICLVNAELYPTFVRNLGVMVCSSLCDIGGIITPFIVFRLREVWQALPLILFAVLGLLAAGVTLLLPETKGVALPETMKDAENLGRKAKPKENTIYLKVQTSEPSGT
Description: Uptake experiments were performed using HEK293 cells stably expressing the respective uptake transporters. The assays were conducted according to the actual SOLVO uptake transporter assay protocols (PR-ASY-UPT-General Protocol for Uptake Transporter Inhibition Assays).
Cells were cultured at 37° C. in a humidified atmosphere containing 5% CO2 and were plated onto standard 96-well tissue culture plates.
Before the experiment, the medium was removed, and the cells were washed twice with 100 μL of pre-warmed (37° C.) assay buffer listed in Table 15. The cells were pre-incubated at 37° C. for 30 minutes in assay buffer containing the test article at appropriate concentrations (Table 16), appropriate solvents for solvent controls and the reference inhibitor for reference inhibitor wells. After the pre-incubation step solutions were removed. Uptake experiments were performed at 37° C. in 50 μL of assay buffer containing the probe substrate and the test article or solvent and controls.
After the experiment, cells were washed twice with 100 μL of appropriate cold buffer and lysed with 150 μL scintillation cocktail. Radiolabeled probe substrate transport was determined by liquid scintillation counting.
Uptake of the probe substrate in control cells provided background activity values for all data points.

[1] = 0.04 μM nominal, sumatriptan, IC50 determination, Table 122
[2] = 0.12 μM nominal, sumatriptan, IC50 determination, Table 122
[3] = 1.11 μM nominal, sumatriptan, IC50 determination, Table 122
[4] = 3.00 μM nominal, sumatriptan, Table 121
[5] = 10.00 μM nominal, sumatriptan, IC50 determination, Table 122
[6] = 30.00 μM nominal, sumatriptan, IC50 determination, Table 122
[7] = 30.00 μM nominal, sumatriptan, Table 121

MDR1, sequence (P08183 whole entry): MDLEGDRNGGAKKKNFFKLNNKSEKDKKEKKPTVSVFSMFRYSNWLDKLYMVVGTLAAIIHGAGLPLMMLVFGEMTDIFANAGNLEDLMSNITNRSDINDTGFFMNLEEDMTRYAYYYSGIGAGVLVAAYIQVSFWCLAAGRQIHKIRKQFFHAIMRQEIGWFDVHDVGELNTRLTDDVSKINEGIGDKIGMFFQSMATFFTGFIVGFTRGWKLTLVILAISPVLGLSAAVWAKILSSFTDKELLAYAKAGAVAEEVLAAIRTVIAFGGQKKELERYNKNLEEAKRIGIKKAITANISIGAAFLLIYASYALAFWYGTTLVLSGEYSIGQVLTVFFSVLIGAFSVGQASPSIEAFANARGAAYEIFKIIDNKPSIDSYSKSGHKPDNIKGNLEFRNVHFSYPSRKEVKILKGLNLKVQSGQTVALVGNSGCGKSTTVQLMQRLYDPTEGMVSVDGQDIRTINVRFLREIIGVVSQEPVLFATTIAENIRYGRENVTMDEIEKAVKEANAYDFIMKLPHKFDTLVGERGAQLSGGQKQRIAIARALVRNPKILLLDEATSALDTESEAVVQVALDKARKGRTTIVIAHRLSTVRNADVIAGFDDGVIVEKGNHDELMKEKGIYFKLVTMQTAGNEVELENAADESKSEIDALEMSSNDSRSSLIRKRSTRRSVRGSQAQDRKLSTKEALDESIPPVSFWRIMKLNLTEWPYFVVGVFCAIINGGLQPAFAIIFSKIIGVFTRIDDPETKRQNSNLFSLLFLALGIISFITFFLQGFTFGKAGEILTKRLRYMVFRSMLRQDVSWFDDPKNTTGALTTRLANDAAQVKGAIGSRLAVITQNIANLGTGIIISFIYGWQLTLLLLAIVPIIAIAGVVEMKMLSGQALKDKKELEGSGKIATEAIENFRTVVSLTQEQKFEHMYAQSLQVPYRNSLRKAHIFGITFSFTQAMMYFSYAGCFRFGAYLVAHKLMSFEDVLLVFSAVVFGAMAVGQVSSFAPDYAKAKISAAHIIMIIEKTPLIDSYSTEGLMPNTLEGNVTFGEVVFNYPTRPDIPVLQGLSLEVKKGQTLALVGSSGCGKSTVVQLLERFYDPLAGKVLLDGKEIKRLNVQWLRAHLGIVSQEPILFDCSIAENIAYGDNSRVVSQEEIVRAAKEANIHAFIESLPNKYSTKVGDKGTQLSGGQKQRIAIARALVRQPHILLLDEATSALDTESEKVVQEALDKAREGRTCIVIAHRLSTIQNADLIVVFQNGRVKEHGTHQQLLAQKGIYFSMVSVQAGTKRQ

Question: Which results are given for `OC1(c2ccc(Cl)cc2)c2ccccc2C2=NCCN21` (centres unmarked) [Compound A, 5-(4-chlorophenyl)-2,3-dihydroimidazo[1,2-b]isoindol-5-ol, reference compound]?
Answer: Relative ATP-dependent transport (MDR1; 5.00 μM nominal): 99.11 ± 9.38 % of control; Relative ATP-dependent transport (MDR1; 50.00 μM nominal): 97.83 ± 5.19 % of control; maximum inhibition of MDR1-mediated NMQ accumulation (MDR1; 2-concentration assay, up to 100 μM (Compound A up to 50 μM)): did not inhibit; also recorded: not an in vitro inhibitor; Maximum % inhibition (MDR1; MDR1, inside-out membrane vesicles, NMQ (1 μM), NIO: No inhibition observed): NIO; inhibition at 5 μM (MDR1; human, Relative inhibition, 5.00 μM nominal): 1%; inhibition at 50 μM (MDR1; human, Relative inhibition, 50.00 μM nominal): 2%; maximum inhibition of BSEP-mediated taurocholate accumulation (BSEP; 2-concentration assay, up to 100 μM (Compound A up to 35 μM)): did not inhibit; also recorded: not an in vitro inhibitor; Maximum % inhibition (BSEP; BSEP, inside-out membrane vesicles, TC (0.2 μM), NIO: No inhibition observed): NIO; inhibition at 35 μM (BSEP; human): 2%; IC50 (OCT1): 2310 nM; Relative transporter specific accumulation (OCT1; [1]): 91.36 ± 5.98 % of control; Transporter specific accumulation (OCT1; [1]): 881.00 ± 27.83 cpm; Relative transporter specific accumulation (OCT1; [2]): 73.95 ± 5.69 % of control; Transporter specific accumulation (OCT1; [2]): 713.17 ± 36.62 cpm; Relative transporter specific accumulation (OCT1; [3]): 65.12 ± 6.84 % of control; Transporter specific accumulation (OCT1; [3]): 628.00 ± 55.27 cpm; Relative transporter specific accumulation (OCT1; [4]): 51.27 ± 1.85 % of control; Transporter specific accumulation (OCT1; [4]): 484.33 ± 16.61 cpm; Relative transporter specific accumulation (OCT1; [5]): 25.23 ± 3.64 % of control; Transporter specific accumulation (OCT1; [5]): 243.33 ± 32.16 cpm; Relative transporter specific accumulation (OCT1; [6]): 14.03 ± 4.75 % of control; Transporter specific accumulation (OCT1; [6]): 135.33 ± 45.14 cpm; Relative transporter specific accumulation (OCT1; [7]): 15.00 ± 1.09 % of control; Transporter specific accumulation (OCT1; [7]): 141.67 ± 10.22 cpm; inhibition at 10 µM (OCT1; human, Maximum % inhibition, OCT1, HEK293 cells, sumatriptan (10 μM), NIO: no inhibition observed): 86%; inhibition at 0.04 μM (OCT1; human, Relative Inhibition, 0.04 μM nominal, sumatriptan, IC50 determination, Table 122): 9%; inhibition at 0.12 μM (OCT1; human, Relative Inhibition, 0.12 μM nominal, sumatriptan, IC50 determination, Table 122): 26%; inhibition at 1.11 μM (OCT1; human, Relative Inhibition, 1.11 μM nominal, sumatriptan, IC50 determination, Table 122): 35%; inhibition at 10 µM (OCT1; human, Relative Inhibition, 10.00 μM nominal, sumatriptan, IC50 determination, Table 122): 75%; inhibition at 30 μM (OCT1; human, Relative Inhibition, 30.00 μM nominal, sumatriptan, IC50 determination, Table 122): 86%; inhibition at 3 μM (OCT1; human, Relative inhibition, 3.00 μM nominal, sumatriptan, Table 121): 49%; inhibition at 30 μM (OCT1; human, Relative inhibition, 30.00 μM nominal, sumatriptan, Table 121): 85%
